What was measured:
5-HT2A [1] = molecular target: T1, 5-HT2A (Homo sapiens, UniProt P28223); experiment: Serotonin 5-HT2A in vitro radioligand binding competition assay; design: purchased Epics Therapeutics S.A. (Belgium) FAST-0505B; host or cells: membrane extracts; conditions: radiotracer [3H]-DOI, membrane extracts
Procedure: Serotonin 5-HT2A In Vitro Radioligand Binding Competition Assay. The 5-HT2A radioligand binding competition assay was performed at Epics Therapeutics S.A. (Belgium, FAST-0505B) using conventional methods. Briefly, competition binding is performed in duplicate in the wells of a 96 well plate (Master Block, Greiner, 786201) containing binding buffer (optimized for each receptor), membrane extracts (amount of protein/well optimized for each receptor), radiotracer [^3H]-DOI (final concentration optimized for each receptor) and test compound. Nonspecific binding is determined by co-incubation with 200-fold excess of cold competitor. The samples are incubated in a final volume of 0.1 ml at a temperature and for a duration optimized for each receptor and then filtered over filter plates. Filters are washed six times with 0.5 ml of ice-cold washing buffer (optimized for each receptor) and 50 μl of Microscint 20 (Packard) are added in each well. The plates are incubated 15 min on an orbital shaker and then counted with a TopCount™ for 1 min/well.

5-HT2A [2] = molecular target: T1, 5-HT2A; experiment: Serotonin 5-HT2A in vitro cellular IPOne agonism assay; assay type: cell-based; design: host or cells: CHO-K1; conditions: CHO-K1 cells, IPOne HTRF, 60 min
Procedure: Serotonin 5-HT2A In Vitro Cellular IPOne Agonism Assay. The 5-HT2A IPOne HTRF assay was performed at Epics Therapeutics S.A. (Belgium, FAST-0505I) using conventional methods. Briefly, CHO-K1 cells expressing human recombinant 5-HT2A receptor grown to mid-log phase in culture media without antibiotics were detached with PBS-EDTA, centrifuged, and resuspended in medium without antibiotics buffer. 20,000 cells are distributed in a 96 well plate and incubated overnight at 37° C. with 5% CO2.
For agonist testing, the medium is removed and 20 μl of assay buffer plus 20 μl of test compound or reference agonist are added in each well. The plate is incubated for 60 min. at 37° C. with 5% CO2.
After addition of the lysis buffer containing IP1-d2 and anti-IP1 cryptate detection reagents, plates are incubated 1-hour at room temperature, and fluorescence ratios are measured according to the manufacturer specification, with the HTRF kit.

T1 sequence (P28223 whole entry): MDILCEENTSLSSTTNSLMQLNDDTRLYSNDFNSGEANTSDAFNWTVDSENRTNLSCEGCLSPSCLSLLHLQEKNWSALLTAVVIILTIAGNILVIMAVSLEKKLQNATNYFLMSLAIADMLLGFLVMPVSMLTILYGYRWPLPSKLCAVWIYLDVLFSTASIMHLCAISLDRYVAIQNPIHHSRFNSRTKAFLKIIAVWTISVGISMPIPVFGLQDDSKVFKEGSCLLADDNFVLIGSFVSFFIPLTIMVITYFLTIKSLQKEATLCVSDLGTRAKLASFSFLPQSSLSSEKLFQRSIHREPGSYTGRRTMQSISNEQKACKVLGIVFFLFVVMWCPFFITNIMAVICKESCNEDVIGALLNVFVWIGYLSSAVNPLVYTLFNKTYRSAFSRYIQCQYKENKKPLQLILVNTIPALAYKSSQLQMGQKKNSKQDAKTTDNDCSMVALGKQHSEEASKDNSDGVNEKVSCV

SMILES | IC50 (5-HT2A [1]) | EC50 (5-HT2A [2])
COc1ccc2c3c(n(C)c2n1)CCN(C1COC1)CC3 [Example 6, 2-methoxy-10-methyl-7-(oxetan-3-yl)-5,6,7,8,9,10-hexahydropyrido[3′,2′:4,5]pyrrolo[2,3-d]azepine] | > 10 µM | 1 to 10 µM
Cc1ccc2c3c(n(C)c2n1)CCNCC3 [Example 10, 2,10-dimethyl-5,6,7,8,9,10-hexahydropyrido[3′,2′:4,5]pyrrolo[2,3-d]azepine] | 1 to 10 µM | 0.01 to 0.1 µM
Clc1cnc2[nH]c3c(c2c1)CCNCC3 [Example 13, 3-chloro-5,6,7,8,9,10-hexahydropyrido[3′,2′:4,5]pyrrolo[2,3-d] azepine] | 0.101 to 1 µM | 0.01 to 0.1 µM
COc1cc2c3c([nH]c2cn1)CCN(C)CC3 [Example 14, 3-methoxy-7-methyl-5,6,7,8,9,10-hexahydropyrido[4′,3′:4,5]pyrrolo[2,3-d]azepine] | > 10 µM | > 10 µM
COc1ccc2[nH]c3c(c2n1)CCN(C)CC3 [Example 15, 2-methoxy-8-methyl-5,6,7,8,9,10-hexahydropyrido[2′,3′:4,5]pyrrolo[2,3-d]azepine] | 0.101 to 1 µM | 0.101 to 1 µM
Brc1ccc2c3c([nH]c2n1)CCNCC3 [Example 16, 2-bromo-5,6,7,8,9,10-hexahydropyrido[3′,2′:4,5]pyrrolo[2,3-d]azepine] | 0.101 to 1 µM | 0.01 to 0.1 µM
c1cnc2[nH]c3c(c2c1)CCNCC3 [Example 17, 5,6,7,8,9,10-hexahydropyrido[3′,2′:4,5] pyrrolo[2,3-d] azepine] | 0.101 to 1 µM | 0.101 to 1 µM
Cn1c2c(c3cccnc31)CCNCC2 [Example 18, 10-methyl-5,6,7,8,9,10-hexahydropyrido[3′,2′:4,5]pyrrolo[2,3-d]azepine] | 0.101 to 1 µM | 0.101 to 1 µM
CN1CCc2[nH]c3nc(Br)ccc3c2CC1 [Example 19, 2-bromo-7-methyl-5,6,7,8,9,10-hexahydropyrido[3′,2′:4,5]pyrrolo[2,3-d]azepine] | 1 to 10 µM | 0.101 to 1 µM
CN1CCc2[nH]c3ncccc3c2CC1 [Example 20, 7-methyl-5,6,7,8,9,10-hexahydropyrido[3′,2′:4,5]pyrrolo[2,3-d]azepine] | 0.101 to 1 µM | 0.101 to 1 µM
CN1CCc2c(n(C)c3ncccc23)CC1 [Example 21, 7,10-dimethyl-5,6,7,8,9,10-hexahydropyrido[3′,2′:4,5]pyrrolo[2,3-d]azepine] | 0.101 to 1 µM | 0.101 to 1 µM
c1cnc2[nH]c3c(c2c1)CCN(C1COC1)CC3 [Example 22, 7-(oxetan-3-yl)-5,6,7,8,9,10-hexahydropyrido[3′,2′:4,5]pyrrolo[2,3-d]azepine] | > 10 µM | > 10 µM
Cn1c2c(c3cccnc31)CCN(C1COC1)CC2 [Example 23, 10-methyl-7-(oxetan-3-yl)-5,6,7,8,9,10-hexahydropyrido[3′,2′:4,5]pyrrolo[2,3-d]azepine] | > 10 µM | 1 to 10 µM
Brc1ccc2c3c([nH]c2n1)CCN(C1COC1)CC3 [Example 24, 2-bromo-7-(oxetan-3-yl)-5,6,7,8,9,10-hexahydropyrido[3′,2′:4,5]pyrrolo[2,3-d]azepine] | 1 to 10 µM | 1 to 10 µM
Cn1c2c(c3ccc(Br)nc31)CCNCC2 [Example 25, 2-bromo-10-methyl-5,6,7,8,9,10-hexahydropyrido[3′,2′:4,5]pyrrolo[2,3-d]azepine] | 0.101 to 1 µM | 0.01 to 0.1 µM
CN1CCc2[nH]c3ncc(Cl)cc3c2CC1 [Example 26, 3-chloro-7-methyl-5,6,7,8,9,10-hexahydropyrido[3′,2′:4,5]pyrrolo[2,3-d]azepine] | 0.101 to 1 µM | 0.101 to 1 µM
Clc1cnc2[nH]c3c(c2c1)CCN(C1COC1)CC3 [Example 27, 3-chloro-7-(oxetan-3-yl)-5,6,7,8,9,10-hexahydropyrido[3′,2′:4,5]pyrrolo[2,3-d]azepine] | 1 to 10 µM | 1 to 10 µM

— patent publication US20230227453A1 (priority 2020, published 2023)
